Assay results: patent publication US4820694A, “Modifications of 3-O-demethylmycinose in macrocin and lactenocin” (priority 1986, dated 1989)
Values after ≈ are worked out from the molar mass of the structure shown. Where two headings read alike, the source gives them in different places.

Tests used:
[1] = system: Streptococcus pyogenes C203; experiment: protection of mice experimentally infected with S. pyogenes C203; format: in vivo; conditions: mice, mg/kg × 2, doses given 1 and 4 hours postinfection, read-out: ED50
Procedure, shortened: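 Mice experimentally infected with S. pyogenes C203 got two doses of test compound, at 1 and 4 h postinfection. The ED50 is the dose in mg/kg (per dose, given twice) that protected 50% of the animals.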

Escherichia coli EC14 = experiment: standard agar-dilution MIC assay; format: cell-based; conditions: agar-dilution, read-out: MIC
Method: (§1) The MIC's in Table III were determined by standard agar-dilution assays. The MIC's in Table IV were obtained using conventional brothdilution microtiter tests.

[2] = system: Klebsiella pneumoniae X68; experiment: standard agar-dilution MIC assay; format: cell-based; conditions: agar-dilution
Method: as §1

[3] = system: Haemophilus influenzae C.L.; experiment: standard agar-dilution MIC assay; format: cell-based
Method: as §1

[4] = system: Pseudomonas aeruginosa X239; experiment: standard agar-dilution MIC assay; format: cell-based; conditions: agar-dilution
Method: as §1

[5] = system: Staphylococcus aureus V41; experiment: standard agar-dilution MIC assay; format: cell-based
Method: as §1

[6] = system: Staphylococcus epidermidis EPI1; experiment: standard agar-dilution MIC assay; format: cell-based
Method: as §1

[7] = system: Staphylococcus epidermidis 222; experiment: standard agar-dilution MIC assay; format: cell-based
Method: as §1

[8] = system: Haemophilus influenzae 76; experiment: standard agar-dilution MIC assay; format: cell-based
Method: as §1

[9] = system: Staphylococcus aureus X1.1; experiment: standard agar-dilution MIC assay; format: cell-based
Method: as §1

[10] = system: Streptococcus Group D 9960; experiment: standard agar-dilution MIC assay; format: cell-based
Method: as §1

[11] = system: Streptococcus pyogenes C203; experiment: standard agar-dilution MIC assay; format: cell-based
Method: as §1

[12] = system: Streptococcus Group D X66; experiment: standard agar-dilution MIC assay; format: cell-based
Method: as §1

[13] = system: Staphylococcus aureus X400; experiment: standard agar-dilution MIC assay; format: cell-based
Method: as §1

[14] = system: Staphylococcus aureus S13E; experiment: microbe, parasite or virus in culture; format: cell-based
Method: as §1

[15] = system: Streptococcus pneumoniae Park I; experiment: microbe, parasite or virus in culture; format: cell-based
Method: as §1

[16] = system: Pasteurella multocida 60A; experiment: broth-dilution microtiter MIC test; format: cell-based
Method: as §1

[17] = system: Pasteurella multocida 22A; experiment: broth-dilution microtiter MIC test; format: cell-based
Method: as §1

[18] = system: Bordetella bronchiseptica; experiment: broth-dilution microtiter MIC test; format: cell-based; conditions: broth-dilution microtiter
Method: as §1

[19] = system: Pasteurella hemolytica 23C; experiment: broth-dilution microtiter MIC test; format: cell-based
Method: as §1

[20] = system: Pasteurella multocida 68C; experiment: broth-dilution microtiter MIC test; format: cell-based
Method: as §1

[21] = system: Pasteurella hemolytica 22C; experiment: broth-dilution microtiter MIC test; format: cell-based
Method: as §1

[22] = system: Mycoplasma gallisepticum 36H; experiment: broth-dilution microtiter MIC test; format: cell-based; conditions: broth-dilution microtiter
Method: as §1

[23] = system: Pasteurella multocida 40G; experiment: broth-dilution microtiter MIC test; format: cell-based
Method: as §1

Mycoplasma synoviae 40A = experiment: broth-dilution microtiter MIC test; format: cell-based
Method: as §1

[24] = system: Staphylococcus aureus 19C; experiment: broth-dilution microtiter MIC test; format: cell-based
Method: as §1

[25] = system: Pasteurella hemolytica 41D; experiment: broth-dilution microtiter MIC test; format: cell-based
Method: as §1

[26] = system: Mycoplasma gallisepticum 29C; experiment: broth-dilution microtiter MIC test; format: cell-based
Method: as §1

[27] = system: Mycoplasma hyopneumoniae S5972; experiment: broth-dilution microtiter MIC test; format: cell-based; conditions: broth-dilution microtiter
Method: as §1

Streptococcus sp. 19F = experiment: broth-dilution microtiter MIC test; format: cell-based
Method: as §1

[28] = system: Pasteurella multocida 17E; experiment: broth-dilution microtiter MIC test; format: cell-based
Method: as §1

[29] = system: Mycoplasma gallisepticum 15E; experiment: broth-dilution microtiter MIC test; format: cell-based
Method: as §1

Mycoplasma hyorhinis 29E = experiment: broth-dilution microtiter MIC test; format: cell-based; conditions: broth-dilution microtiter
Method: as §1

[30] = system: Streptococcus Group D 2041; experiment: standard agar-dilution MIC assay; format: cell-based; conditions: GROUPD2041
Method: as §1

[31] = Klebsiella pneumoniae, X68, read-out: MIC
[32] = Pseudomonas aeruginosa, X239, read-out: MIC
[33] = Staphylococcus epidermidis, EPI1
[34] = Staphylococcus epidermidis, 222

CCC1OC(=O)CC(O)C(C)C(OC2OC(C)C(O)C(N(C)C)C2O)C(CC=O)CC(C)C(=O)C=CC(C)=CC1COC1OC(C)C2OC(=O)OC2C1OC (stereo not shown) [Compound 51, Lactenocin-3",4"-Carbonate Derivative]
ED50 ([1]; C203, Oral): > 100 mg/kg
ED50 ([1]; C203, sc, Subcutaneous): 1.1 mg/kg
MIC (Escherichia coli EC14): > 128 mg/L
MIC [2, 31]: > 128 mg/L
MIC ([3]; Haemophilus influenzae): 8 mg/L (≈ 10.2 µM)
MIC [4, 32]: > 128 mg/L
MIC ([5]; Staphylococcus aureus, V41): 2 mg/L (≈ 2.55 µM)
MIC [6, 33]: 1 mg/L (≈ 1.28 µM)
MIC [7, 34]: 0.5 mg/L (≈ 0.638 µM)
MIC ([8]; Haemophilus influenzae, 76): 8 mg/L (≈ 10.2 µM)
MIC ([9]; Staphylococcus aureus, X1.1): 1 mg/L (≈ 1.28 µM)
MIC ([10]; GROUPD9960, read-out: MIC): 2 mg/L (≈ 2.55 µM)
MIC ([11]; Streptococcus pyogenes, C203): 0.25 mg/L (≈ 0.319 µM)
MIC ([12]; read-out: MIC): 2 mg/L (≈ 2.55 µM)
MIC ([13]; Staphylococcus aureus, X400): 2 mg/L (≈ 2.55 µM)
MIC ([14]; Staphylococcus aureus, S13E): 1 mg/L (≈ 1.28 µM)
MIC ([15]; Streptococcus pneumoniae): 0.25 mg/L (≈ 0.319 µM)
MIC ([16]; Pasteurella multocida, 60A): 6.25 mg/L (≈ 7.97 µM)
MIC ([17]; Pasteurella multocida, 22A): 6.25 mg/L (≈ 7.97 µM)
MIC ([18]; Bordetella bronchiseptica, read-out: MIC): > 50 mg/L
MIC ([19]; Pasteurella, 23C): 25 mg/L (≈ 31.9 µM)
MIC ([20]; Pasteurella multocida, 68C): 12.5 mg/L (≈ 15.9 µM)
MIC ([21]; Pasteurella, 22C): 12.5 mg/L (≈ 15.9 µM)
MIC ([22]; Mycoplasmoides gallisepticum, 36H, read-out: MIC): > 50 mg/L
MIC ([23]; Pasteurella multocida, 40G): 3.12 mg/L (≈ 3.98 µM)
MIC (Mycoplasma synoviae 40A; Mycoplasmopsis synoviae, 40A): 0.78 mg/L (≈ 0.995 µM)
MIC ([24]; Staphylococcus aureus, 19C): 1.56 mg/L (≈ 1.99 µM)
MIC ([25]; Pasteurella, 41D): 12.5 mg/L (≈ 15.9 µM)
MIC ([26]; Mycoplasmoides gallisepticum, 29C): 0.39 mg/L (≈ 0.498 µM)
MIC ([27]; Mesomycoplasma hyopneumoniae, S5972, read-out: MIC): 0.097 mg/L (≈ 0.124 µM)
MIC (Streptococcus sp. 19F; Streptococcus, SP.19F): 3.12 mg/L (≈ 3.98 µM)
MIC ([28]; Pasteurella multocida, 17E): 6.25 mg/L (≈ 7.97 µM)
MIC ([29]; Mycoplasmoides gallisepticum, 15E): 50 mg/L (≈ 63.8 µM)
MIC (Mycoplasma hyorhinis 29E; Mycoplasma, 29E, read-out: MIC): 3.2 mg/L (≈ 4.08 µM)

CC[C@H]1OC(=O)C[C@@H](O)[C@H](C)[C@@H](O[C@@H]2O[C@H](C)[C@@H](O)[C@H](N(C)C)[C@H]2O)[C@@H](CC=O)C[C@@H](C)C(=O)/C=C/C(C)=C/[C@@H]1CO[C@@H]1O[C@H](C)[C@@H](OC(=O)COc2ccccc2)[C@@H](O)[C@H]1OC [Compound 34, 4"-O-Phenoxyacetyl-lactenocin]
MIC [2]: -- (Not active at 128 mcg/mL, the highest level tested)
MIC ([3]; agar-dilution, Ampicillin-sensitive strain): 4 mg/L (≈ 4.48 µM)
MIC [4]: -- (Not active at 128 mcg/mL, the highest level tested)
MIC ([5]; agar-dilution, Penicillin-resistant strain): 1 mg/L (≈ 1.12 µM)
MIC ([6]; agar-dilution): 1 mg/L (≈ 1.12 µM)
MIC ([7]; agar-dilution): 0.5 mg/L (≈ 0.561 µM)
MIC ([8]; agar-dilution, Ampicillin-resistant strain): 4 mg/L (≈ 4.48 µM)
MIC ([9]; agar-dilution): 1 mg/L (≈ 1.12 µM)
MIC [10]: 1 mg/L (≈ 1.12 µM)
MIC ([11]; agar-dilution): 0.12 mg/L (≈ 0.135 µM)
MIC [12]: 1 mg/L (≈ 1.12 µM)
MIC ([13]; agar-dilution, Methicillin-resistant strain): 1 mg/L (≈ 1.12 µM)
MIC ([14]; agar-dilution): 1 mg/L (≈ 1.12 µM)
MIC ([15]; agar-dilution): 0.12 mg/L (≈ 0.135 µM)
MIC ([16]; broth-dilution microtiter, Avian isolate): 12.5 mg/L (≈ 14 µM)
MIC ([17]; broth-dilution microtiter): 12.5 mg/L (≈ 14 µM)
MIC [18]: 50 mg/L (≈ 56.1 µM)
MIC ([19]; broth-dilution microtiter): 25 mg/L (≈ 28 µM)
MIC ([20]; broth-dilution microtiter): 12.5 mg/L (≈ 14 µM)
MIC ([21]; broth-dilution microtiter): 25 mg/L (≈ 28 µM)
MIC [22]: 12.5 mg/L (≈ 14 µM)
MIC ([23]; broth-dilution microtiter): 12.5 mg/L (≈ 14 µM)
MIC (Mycoplasma synoviae 40A; broth-dilution microtiter): 0.097 mg/L (≈ 0.109 µM)
MIC ([24]; broth-dilution microtiter): 0.78 mg/L (≈ 0.874 µM)
MIC ([25]; broth-dilution microtiter): 25 mg/L (≈ 28 µM)
MIC ([26]; broth-dilution microtiter): ≤ 0.048 mg/L
MIC [27]: 0.097 mg/L (≈ 0.109 µM)
MIC (Streptococcus sp. 19F; broth-dilution microtiter): 1.56 mg/L (≈ 1.75 µM)
MIC ([28]; broth-dilution microtiter, Bovine isolate): 6.25 mg/L (≈ 7.01 µM)
MIC ([29]; broth-dilution microtiter): 25 mg/L (≈ 28 µM)
MIC (Mycoplasma hyorhinis 29E): 6.25 mg/L (≈ 7.01 µM)

CCC1OC(=O)CC(O)C(C)C(OC2OC(C)C(O)C(N(C)C)C2O)C(CCOc2ccccc2)CC(C)C(=O)C=CC(C)=CC1COC1OC(C)C2OC(=S)OC2C1OC (stereo not shown) [Compound 59, 20-DH-20-O-Phenyl-lactenocin 3",4"-thiocarbonate]
ED50 ([1]; C203, Oral): 54 mg/kg
ED50 ([1]; C203, sc, Subcutaneous): 10 mg/kg
MIC (Escherichia coli EC14): > 128 mg/L
MIC [2, 31]: > 128 mg/L
MIC ([3]; Haemophilus influenzae, agar-dilution, Ampicillin-sensitive strain, read-out: MIC): 128 mg/L (≈ 146 µM)
MIC [4, 32]: > 128 mg/L
MIC [30]: 32 mg/L (≈ 36.4 µM)
MIC ([5]; Staphylococcus aureus, V41): 1 mg/L (≈ 1.14 µM)
MIC [6, 33]: 2 mg/L (≈ 2.28 µM)
MIC [7, 34]: 0.5 mg/L (≈ 0.569 µM)
MIC ([8]; Haemophilus influenzae, 76, agar-dilution, Ampicillin-resistant strain, read-out: MIC): 128 mg/L (≈ 146 µM)
MIC ([9]; Staphylococcus aureus, X1.1): 1 mg/L (≈ 1.14 µM)
MIC ([11]; Streptococcus pyogenes, C203): 2 mg/L (≈ 2.28 µM)
MIC ([12]; read-out: MIC): 16 mg/L (≈ 18.2 µM)
MIC ([13]; Staphylococcus aureus, X400): 1 mg/L (≈ 1.14 µM)
MIC ([14]; Staphylococcus aureus, S13E): 1 mg/L (≈ 1.14 µM)
MIC ([15]; Streptococcus pneumoniae): 2 mg/L (≈ 2.28 µM)
